This note sets out measurements from patent US5223485A, “Anaphylatoxin-receptor ligands” (Abbott Laboratories, priority 1991, dated 1993).

The structures appear in SMILES notation. pKi: −log10 of the molar value. Square brackets hold non-standard residues; d marks the D form. Peptide text beside a SMILES is read from it. * marks the point of attachment. Phe(4-NO2) = N[C@@H](Cc1ccc([N+](=O)[O-])cc1)C(=O)O; 2Nal = N[C@@H](Cc1ccc2ccccc2c1)C(=O)O; NEtPhe = CCN[C@@H](Cc1ccccc1)C(=O)O; hCha = N[C@@H](CCC1CCCCC1)C(=O)O; Cha = N[C@@H](CC1CCCCC1)C(=O)O; dNMeA = CN[C@H](C)C(=O)O; Boc = CC(C)(C)OC(=O)*; For = O=C*

The assay addresses T1, C5a Receptor (Homo sapiens, UniProt P21730).
T1 construct: 2.5-25 μg/mL of purified PMNL membrane fragments; from tissue; host or cells: polymorphonuclear leukocyte (PMNL) membrane fragments
T1 sequence (P21730 1-350): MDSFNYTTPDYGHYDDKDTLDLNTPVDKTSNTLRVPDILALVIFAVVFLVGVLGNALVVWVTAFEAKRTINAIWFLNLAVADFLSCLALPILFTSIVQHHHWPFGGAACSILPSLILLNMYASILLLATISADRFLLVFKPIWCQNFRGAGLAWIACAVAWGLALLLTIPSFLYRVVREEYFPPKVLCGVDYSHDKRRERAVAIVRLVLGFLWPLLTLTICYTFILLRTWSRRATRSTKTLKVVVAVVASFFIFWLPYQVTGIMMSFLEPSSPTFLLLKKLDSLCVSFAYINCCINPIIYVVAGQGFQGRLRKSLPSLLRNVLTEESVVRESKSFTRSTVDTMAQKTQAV
Put plainly: Anaphylatoxin receptor binding Ki determination: inhibition of 125I-C5a binding to PMNL membrane fragments. The conditions noted are these: 0.03-1 nM 125I-C5a, 2.5-25 μg/mL purified PMNL membrane fragments, filtration; read-out: In vitro C5a Receptor Binding Potency Ki. The procedure:
Specific inhibition of C5a binding activity of representative compounds of the present invention was measured using 0.03-1 nM ^125 I-C5a with 2.5-25 μg/mL of purified PMNL membrane fragments (Borregaard, N.; Heiple, J. M.; Simons, E. R.; and Clark, R. A. J. Cell. Biol. 1983, 97, 52-61.). Free and membrane-bound ligand were separated by filtration.
As a reminder, the pKi is the Ki on a negative log10 scale, so that one unit is a factor of ten. As for `CSCC[C@H](NC(=O)[C@H](CC(=O)O)NC(=O)[C@H](CCCCN)NC(=O)[C@@H](N)Cc1ccccc1)C(=O)N[C@@H](CCCNC(=N)N)C(=O)N[C@@H](CC(C)C)C(=O)NCC(=O)N[C@@H](CCCNC(=N)N)C(=O)O` [Example 424, H-Phenylalanyl-Lysyl-Aspartyl-Methionyl-Arginyl-Leucyl-Glycyl-Arginyl-OH] (H-FKDMRLGR-OH), the negative logarithm of the Ki (pKi) is 6.32. On to `CC(C)C[C@H](NC(=O)[C@H](CC1CCCCC1)NC(=O)[C@H](CC1CCCCC1)NC(=O)[C@H](C)NC(=O)[C@H](CCCCN)NC(=O)[C@@H](N)Cc1ccccc1)C(=O)N[C@H](C)C(=O)N[C@@H](CCCNC(=N)N)C(=O)O` [Example 2, H-Phenylalanyl-Lysyl-Alanyl-{(2S)-2-Amino-3-cyclohexylpropanoyl}-{(2S)-2-Amino-3-cyclohexylpropanoyl}-Leucyl-DAlanyl-Arginyl-OH] (H-FKA[Cha][Cha]L[dA]R-OH), for which the negative-log Ki (pKi) is 7.01.

As to `CC(C)C[C@H](NC(=O)[C@H](CC1CCCCC1)NC(=O)[C@@H](C)NC(=O)[C@H](C)NC(=O)[C@H](CCCCN)NC(=O)[C@@H](N)Cc1ccccc1)C(=O)N[C@H](C)C(=O)N[C@@H](CCCNC(=N)N)C(=O)O` [Example 247, H-Phenylalanyl-Lysyl-Alanyl-DAlanyl-{(2S)-2-Amino-3-cyclohexylpropanoyl}-Leucyl-DAlanyl-Arginyl-OH] (H-FKA[dA][Cha]L[dA]R-OH), the pKi was 6.48. The result for `CC(C)C[C@H](NC(=O)[C@H](CC1CCCCC1)NC(=O)[C@H](CC1CCCCC1)NC(=O)[C@H](C)NC(=O)[C@H](CCCCN)NC(=O)[C@@H](N)Cc1cn(C=O)c2ccccc12)C(=O)N[C@H](C)C(=O)N[C@@H](CCCNC(=N)N)C(=O)O` [Example 338, H-Tryptophyl(N-formyl)-Lysyl-Alanyl-{(2S)-2-Amino-3-cyclohexylpropanoyl}-{(2S)-2-Amino-3-cyclohexylpropanoyl}-Leucyl-DAlanyl-Arginyl-OH] (H-W(For)KA[Cha][Cha]L[dA]R-OH) reads 6.30; that for `CC(C)C[C@H](NC(=O)[C@H](C)NC(=O)[C@H](CCC1CCCCC1)NC(=O)[C@H](C)NC(=O)[C@H](CCCCN)NC(=O)[C@@H](N)Cc1ccccc1)C(=O)N[C@H](C)C(=O)N[C@@H](CCCNC(=N)N)C(=O)O` [Example 106, H-Phenylalanyl-Lysyl-Alanyl-{(2S)-2-Amino-4-cyclohexylbutanoyl}-Alanyl-Leucyl-DAlanyl-Arginyl-OH] (H-FKA[hCha]AL[dA]R-OH), 7.38; that for `CC(C)C[C@H](NC(=O)[C@H](CC1CCCCC1)NC(=O)[C@@H](NC(=O)[C@H](C)NC(=O)[C@H](CCCCN)NC(=O)[C@@H](N)Cc1ccccc1)[C@@H](C)O)C(=O)N[C@H](C)C(=O)N[C@@H](CCCNC(=N)N)C(=O)O` [Example 182, H-Phenylalanyl-Lysysl-Alanyl-Threonyl-{(2S)-2-Amino-3-cyclohexylpropanoyl}-Leucyl-DAlanyl-Arginyl-OH] (H-FKAT[Cha]L[dA]R-OH), 6.52. The result for `CC(C)C[C@H](NC(=O)[C@H](CC1CCCCC1)NC(=O)[C@H](Cc1c[nH]c2ccccc12)NC(=O)[C@H](C)NC(=O)[C@H](CCCCN)NC(=O)[C@@H](N)Cc1ccccc1)C(=O)N[C@H](C)C(=O)N[C@@H](CCCNC(=N)N)C(=O)O` [Example 245, H-Phenylalanyl-Lysyl-Alanyl-Tryptophyl-{(2S)-2-Amino-3-cyclohexylpropanoyl}-Leucyl-DAlanyl-Arginyl-OH] (H-FKAW[Cha]L[dA]R-OH) reads 7.28; that for `CSCC[C@H](NC(=O)[C@H](CC(=O)O)NC(=O)[C@H](CCCCN)NC(=O)[C@@H](N)Cc1ccc2ccccc2c1)C(=O)N[C@@H](CCC(N)=O)C(=O)N[C@@H](CC(C)C)C(=O)NCC(=O)N[C@@H](CCCNC(=N)N)C(=O)O` [Example 377, H-{3-(2'-Naphthyl)alanyl}-Lysyl-Aspartyl-Methionyl-Glutaminyl-Leucyl-Glycyl-Arginyl-OH] (H-[2Nal]KDMQLGR-OH), 5.74. With `C[C@H](NC(=O)[C@H](CCCCN)NC(=O)[C@@H](N)Cc1ccccc1)C(=O)N[C@@H](CC1CCCCC1)C(=O)NCC(=O)N[C@H](Cc1c[nH]c2ccccc12)C(=O)N[C@H](C)C(=O)N[C@@H](CCCNC(=N)N)C(=O)O` [Example 249, H-Phenylalanyl-Lysyl-Alanyl-{(2S)-2-Amino-3-cyclohexylpropanoyl}-Glycyl-DTryptophyl-DAlanyl-Arginyl-OH] (H-FKA[Cha]G[dW][dA]R-OH), the pKi was 6.96. As for `CC(C)C[C@H](NC(=O)[C@@H](Cc1ccccc1)NC(=O)[C@H](CC1CCCCC1)NC(=O)[C@H](C)NC(=O)[C@H](CCCCN)NC(=O)[C@@H](N)Cc1ccccc1)C(=O)N[C@H](C)C(=O)N[C@@H](CCCNC(=N)N)C(=O)O` [Example 220, H-Phenylalanyl-Lysyl-Alanyl-{(2S)-2-Amino-3-cyclohexylpropanoyl}-DPhenylalanyl-Leucyl-DAlanyl-Arginyl-OH] (H-FKA[Cha][dF]L[dA]R-OH), the figure is 6.66; as for `C[C@H](NC(=O)[C@H](CCCCN)NC(=O)[C@@H](N)Cc1ccccc1)C(=O)N[C@@H](CC1CCCCC1)C(=O)N[C@@H](CC1CCCCC1)C(=O)N[C@H](C)C(=O)N[C@H](C)C(=O)N[C@@H](CCCNC(=N)N)C(=O)O` [Example 202, H-Phenylalanyl-Lysyl-Alanyl-{(2S)-2-Amino-3-cyclohexylpropanoyl}-{(2S)-2-Amino-3-cyclohexylpropanoyl}-DAlanyl-DAlanyl-Arginyl-OH] (H-FKA[Cha][Cha][dA][dA]R-OH), 6.06; as for `CCN[C@@H](Cc1ccccc1)C(=O)N[C@@H](CCCCN)C(=O)N[C@@H](C)C(=O)N[C@@H](CC1CCCCC1)C(=O)N[C@@H](C)C(=O)N[C@@H](CC(C)C)C(=O)N(C)[C@H](C)C(=O)N[C@@H](CCCNC(=N)N)C(=O)O` [Example 402, (N-Ethyl)Phenylalanyl-Lysyl-Alanyl-{(2S)-2-Amino-3-cyclohexylpropanoyl}-Alanyl-Leucyl-(N-Methyl)DAlanyl-Arginyl-OH] (H-[NEtPhe]KA[Cha]AL[dNMeA]R-OH), 7.96.

With `CC(C)C[C@H](NC(=O)[C@H](C)NC(=O)[C@H](CC1CCCCC1)NC(=O)[C@H](C)NC(=O)[C@H](CCCCN)NC(=O)[C@@H](N)Cc1ccccc1)C(=O)N(C)[C@H](C)C(=O)N[C@@H](CCCNC(=N)N)C(=O)O` [Example 296, H-Phenylalanyl-Lysyl-Alanyl-{(2S)-2-Amino-3-cyclohexylpropanoyl}-Alanyl-Leucyl-(N-Methyl)DAlanyl-Arginyl-OH] (H-FKA[Cha]AL[dNMeA]R-OH), the pKi is 7.92. The result for `CC(=O)N[C@@H](Cc1ccc([N+](=O)[O-])cc1)C(=O)N[C@@H](CCCCN)C(=O)N[C@@H](CC(=O)O)C(=O)N[C@@H](CC1CCCCC1)C(=O)N[C@@H](CC1CCCCC1)C(=O)N[C@@H](CC(C)C)C(=O)N[C@H](C)C(=O)N[C@@H](CCCNC(=N)N)C(=O)O` [Example 31, Ac-(4-NO2)Phenylalanyl-Lysyl-Aspartyl-{(2S)-2-Amino-3-cyclohexylpropanoyl}-{(2S)-2-Amino-3-cyclohexylpropanoyl}-Leucyl-DAlanyl-Arginyl-OH] (Ac-[Phe(4-NO2)]KD[Cha][Cha]L[dA]R-OH) reads 7.05. As for `CC(C)C[C@H](NC(=O)[C@H](CC1CCCCC1)NC(=O)[C@H](CC1CCCCC1)NC(=O)[C@H](C)NC(=O)[C@H](CCCCN)NC(=O)[C@@H](N)Cc1ccccc1)C(=O)N[C@H](C)C(=O)NCC(=O)N[C@@H](CCCNC(=N)N)C(=O)O` [Example 213, H-Phenylalanyl-Lysyl-Alanyl-{(2S)-2-Amino-3-cyclohexylpropanoyl}-{(2S)-2-Amino-3-cyclohexylpropanoyl)-Leucyl-DAlanyl-Glycyl-Arginyl-OH] (H-FKA[Cha][Cha]L[dA]GR-OH), the figure is 6.48; as for `CC(=O)N[C@@H](Cc1c[nH]cn1)C(=O)N[C@@H](CCCCN)C(=O)N[C@@H](CC(=O)O)C(=O)N[C@@H](CC1CCCCC1)C(=O)N[C@@H](Cc1c[nH]cn1)C(=O)N[C@@H](CC(C)C)C(=O)N[C@H](C)C(=O)N[C@@H](CCCNC(=N)N)C(=O)O` [Example 23, Ac-Histidyl-Lysyl-Aspartyl-{(2S)-2-Amino-3-cyclohexylpropanoyl}-Histidyl-Leucyl-DAlanyl-Arginyl-OH] (Ac-HKD[Cha]HL[dA]R-OH), 5.62.

In the case of `CC(C)C[C@H](NC(=O)[C@H](C)NC(=O)[C@H](CC1CCCCC1)NC(=O)[C@H](C)NC(=O)[C@H](CCCCN)NC(=O)[C@H](Cc1ccccc1)NC(=O)OC(C)(C)C)C(=O)N[C@H](C)C(=O)N[C@@H](CCCNC(=N)N)C(=O)O` [Example 404, tert-Butyloxycarbonyl-Phenylalanyl-Lysyl-Alanyl-{(2S)-2-Amino-3-cyclohexylpropanoyl}-Alanyl-Leucyl-DAlanyl-Arginyl-OH] (Boc-FKA[Cha]AL[dA]R-OH), the pKi was 6.89. On to `CC(C)C[C@H](NC(=O)[C@H](CCCNC(=N)N)NC(=O)[C@H](CC1CCCCC1)NC(=O)[C@H](C)NC(=O)[C@H](CCCCN)NC(=O)[C@@H](N)Cc1ccccc1)C(=O)N[C@H](C)C(=O)N[C@@H](CCCNC(=N)N)C(=O)O` [Example 432, H-Phenylalanyl-Lysyl-Alanyl-{(2S)-2-Amino-3-cyclohexylpropanoyl}-Arginyl-Leucyl-DAlanyl-Arginyl-OH] (H-FKA[Cha]RL[dA]R-OH), for which the pKi was 7.52.
